Data as given in ChEMBL document CHEMBL1201862, “PubChem BioAssay data set” (2004).
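Cells were grown in 96-well plates and exposed to each compound for 48 hours at five concentrations; endpoints were interpolated linearly between bracketing concentrations, or set to the highest concentration if not reached. Here, GI50 denotes the concentration required for 50% inhibition of growth.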 The source made the active and inactive calls. Rule as the data show it: active = GI50 up to about 1.1 µM and inactive = higher.

How the values were obtained:
Experiment in all cases: growth of human tumour cells (NCI), 48 h
[1] = system: DLD-1
[2] = system: DMS-114
[3] = system: EKVX
[4] = system: HOP-92
[5] = system: IGROV-1
[6] = system: NCI-H226
[7] = system: NCI-H460
[8] = system: NCI/ADR-RES
[9] = system: RXF 393
[10] = system: SNB-78
[11] = system: SW-620
[12] = system: U-251
[13] = system: UACC-257
[14] = system: M14
[15] = system: MCF7

SMILES	GI50 [1]	GI50 [2]	GI50 [3]	GI50 [4]	GI50 [5]	GI50 [6]	GI50 [7]	GI50 [8]	GI50 [9]	GI50 [10]	GI50 [11]	GI50 [12]	GI50 [13]	GI50 [14]	GI50 [15]
CCCCCCCCCCCCCCCCOCC(COP(=O)([O-])OCC[N+](C)(C)C)OCCCCCCCCCCCCCCCC (stereo not drawn)	> 100 µM (inactive)	> 100 µM (inactive)	> 100 µM (inactive)	> 100 µM (inactive)	> 100 µM (inactive)	> 100 µM (inactive)	> 100 µM (inactive)	> 92.9 µM (inactive)	> 100 µM (inactive)	> 100 µM (inactive)	> 100 µM (inactive)	> 100 µM (inactive)	> 100 µM (inactive)	–	–
CC(=O)Nc1ccc(C2=N/C(=C\c3ccc(Cl)c(Cl)c3)C(=O)O2)cc1	64 µM (inactive)	> 100 µM (inactive)	> 100 µM (inactive)	68.9 µM (inactive)	> 100 µM (inactive)	> 100 µM (inactive)	> 100 µM (inactive)	–	> 100 µM (inactive)	> 100 µM (inactive)	> 100 µM (inactive)	> 100 µM (inactive)	> 100 µM (inactive)	> 100 µM (inactive)	–
COc1cc2c(cc1Oc1c(Oc3c(O)c(OC)cc4c3C(CC(C)C)N(C)CC4)c(OC)cc3c1C(CC(C)C)N(C)CC3)C(CC(C)C)N(C)CC2 (stereo not drawn)	1.76 µM (inactive)	0.838 µM (active)	0.528 µM (active)	0.465 µM (active)	3.02 µM (inactive)	0.422 µM (active)	0.519 µM (active)	2.38 µM (inactive)	0.495 µM (active)	1.13 µM (inactive)	0.879 µM (active)	0.492 µM (active)	1.45 µM (inactive)	–	0.632 µM (active)
CCN(CC)c1c(C)c(C(=O)OC)nn1-c1ccccc1	> 100 µM (inactive)	38.7 µM (inactive)	> 81.1 µM (inactive)	71 µM (inactive)	> 100 µM (inactive)	> 77.1 µM (inactive)	> 100 µM (inactive)	36.4 µM (inactive)	33.3 µM (inactive)	> 100 µM (inactive)	> 100 µM (inactive)	61.1 µM (inactive)	31.2 µM (inactive)	–	80.4 µM (inactive)
O=C1C(=O)c2cc([N+](=O)[O-])ccc2-c2ccc([N+](=O)[O-])cc21	1.64 µM (inactive)	0.375 µM (active)	2.04 µM (inactive)	0.21 µM (active)	0.748 µM (active)	1.51 µM (inactive)	1 µM (active)	0.344 µM (active)	0.191 µM (active)	0.698 µM (active)	0.401 µM (active)	0.773 µM (active)	1.2 µM (inactive)	–	0.933 µM (active)
